According to patent US20210380988A1, “Reducing Prominin2-Mediated Resistance to Ferroptotic Cell Death” (University of Massachusetts, priority 2020, published 2021):
Where a SMILES comes first, the peptide text is derived from it. The star is where a group is joined. Cbz = O=C(OCc1ccccc1)*; CH2F = FC*

What was measured:
Assay type in all cases: cell-based
[1] = tested on: HSF1; test: HSF1 mRNA, protein, S326 phosphorylation and nuclear localization in MCF10A cells; conditions: for time after treatment at which the increase in HSF1 mRNA peaked: 25 uM 4HNE or 5 uM RSL3; for expression of HSF1 mRNA by qPCR: 25 uM 4HNE or 5 uM RSL3, 0 to 120 minutes; for HSF1 protein expression and phosphorylation at S326: after 60 minutes of exposure
Experimental: (§1) Biochemical experiments: Immunoblotting and qPCR were performed as described (Brown C W, 2017). Briefly, for immunoblotting, cell lysates were extracted using radioimmunoprecipitation assay (RIPA) buffer (Boston Bioproducts). Extracts were separated by SDS PAGE using the specified antibodies. Immunoprecipitation was performed on lysates isolated using NP-40 buffer (Boston Bioproducts). Lysates were pre-cleared prior to overnight incubation with the primary antibody and protein A agarose beads (Sigma-Aldrich). Immune complexes were separated by SDS PAGE and immunoblotted as described in figure legends. RNA was isolated from cells (BioBasic) and cDNA was generated using the All in One cDNA Synthesis SuperMix (BioScript Solutions). qPCR was performed using a SYBR green master mix (BioScript Solutions). Sequences for primers used were as follows: […]
(§2) Immunofluorescence microscopy: For adherent cells, 8 well chamber slides (Mattek) were coated with 1 μg/mL laminin (Invitrogen). Cells (5.0×10^4 per well) were plated overnight and then treated for two hours with either DMSO or RSL3, fixed in 4% paraformaldehyde and permeabilized in 0.1% Triton (JT Baker). Slides were blocked in 0.5% BSA (Boston Bioproducts), incubated in antibody overnight at 4° C., washed in PBS and incubated in secondary antibody for 1 hr at room temperature. Slides were washed and mounted in Vectashield with DAPI (Vector Labs). For ECM-detached experiments, cells were trypsinized and plated (5.0×10^5 per well) in 60 mm low-adherent plates (Sumitomo Bakelite) for two hr, collected and spun down prior to being fixed and stained as described above. Slides were imaged on a Zeiss or a Nikon A-1 confocal microscope.

[2] = tested on: prominin2; test: PROM2 mRNA (qPCR) and prominin2 protein (immunoblot) expression in MCF10A cells; conditions: for prominin2 mRNA and protein expression: adherent MCF10A, 2 hrs, 5 μM RSL3, 250 μM H2O2
Experimental: as §1

[3] = tested on: HSF1; test: HSF1 mRNA, protein, S326 phosphorylation and nuclear localization in MCF10A cells; conditions: after 60 minutes of exposure
[4] = tested on: MDA-MB-231 cells; test: Survival of adherent cells in response to GPX4 inhibition (crystal violet); conditions: for cell death in response to compound with exogenous prominin2 expression: MDA-MB-231, prominin2 expression construct vs vector control
Experimental: (§3) Cell-based assays: Assays to assess survival in response to matrix detachment were performed as described (Brown C W, 2017). To assay survival in response to GPX4 inhibition, adherent cells in 96 well plates (1.0×10^4 per well) were treated with either DMSO, RSL3, ML210, FIN56 or erastin for 24 hrs with and without ferrostatin-1 or DFO. Subsequently, cells were fixed in 4% paraformaldehyde (Boston BioProducts), stained with crystal violet (Sigma) and read on a microplate reader (Beckman Colter) at absorbance 595. Absorbances were normalized to DMSO.

[5] = tested on: Hs578t cells; test: as above; conditions: for sensitivity to compound in prominin2 knock-down cells compared to control cells: prominin2 siRNA 48 hours, compound 24 hrs
Experimental: as §3

[6] = tested on: MCF10A cells; test: as above; conditions: for sensitivity to compound in prominin2 knock-down cells compared to control cells: prominin2 siRNA 48 hours, compound 24 hrs
Experimental: as §3

[7] = tested on: prominin2; test: PROM2 mRNA (qPCR) and prominin2 protein (immunoblot) expression in Hs578t cells; conditions: adherent Hs578t, 2 hrs; 5 μM RSL3, 250 μM H2O2
Experimental: as §1

[8] = tested on: Hs578t cells; test: Multivesicular body formation (TSG101 immunofluorescence); conditions: RSL3 2 hrs
Experimental: as §2

[9] = tested on: MDA-MB-231 cells; test: Total free iron (Iron Assay Kit); conditions: MDA-MB-231 vector control, RSL3 2 hrs; prevented by prominin2 expression
Experimental: (§4) Total free iron was quantified using the Iron Assay Kit (Abcam) per manufacturer's specifications. Briefly, adherent cells in 10 cm plates (1.0×10^6/well) were treated with either DMSO or RSL3 for 2 hrs, lysed and supernatant was reduced using the provided iron reducer before the mixture was reacted with an iron probe. Plates were read at 595 nm and total iron concentration was obtained using an iron standard curve.

[10] = tested on: Hs578t cells; test: Total free iron (Iron Assay Kit)
Experimental: as §4

[11] = tested on: MCF10A cells; test: Total free iron (Iron Assay Kit)
Experimental: as §4

[12] = tested on: MCF10A and Hs578t cells; test: Exosome isolation by ultracentrifugation (protein, ICP-MS iron)
Experimental: Exosome isolation: Cells were cultured for 24 hrs in their respective media containing extracellular vesicle (EV) free serum and treated with RSL3 for 24 hours. Culture supernatants were centrifuged at 4° C. at 1000 RPM for 5 min, 3000 RPM for 10 min, 4000 RPM for 30 min prior to ultracentrifugation at 22,000 RPM for 140 min at 4° C. Pellets were resuspended in cold PBS and centrifuged again under the same conditions. For immunoblotting, pellets were lysed in RIPA buffer, centrifuged at 10,000 RPM for 15 min and protein concentration was determined by Bradford Assay (BioRad). For TEM, PBS was removed and 20 μL of the exosome preparation was fixed and processed. For ICP-mass spec, exosome-containing pellet was resuspended in 0.5 mL PBS and centrifuged in a speed-vac at 45° C. Samples were sent to the UMASS Mass Spectrometry Core where they were digested in 100 μL HNO3, heated to 65° C. for 20 min and diluted to 2 mL with ddH2O before analysis.

[13] = tested on: prominin1 (CD133); test: PROM1 expression by qPCR; conditions: MCF10A and Hs578t cells, 5 μM RSL3, 2 hrs (FIG. 8A)
Experimental: as §1

[14] = tested on: prominin2; test: PROM2 mRNA (qPCR) and prominin2 protein (immunoblot) expression in MDA-MB-231 cells; conditions: adherent MDA-MB-231, RSL3 2 hrs
Experimental: as §1

[15] = tested on: MCF10A cells; test: Multivesicular body formation (TSG101 immunofluorescence, TEM)
Experimental: as §2
Transmission Electron Microscopy: Adherent siControl and siProminin2 cells were treated with DMSO or RSL3 (5 μM) for two hr. ECM-detached siControl and siProminin2 cells were maintained for 2 hrs in low-adherence plates. All cells were fixed by adding 2.5% glutaraldehyde (v/v) in 0.1 M Na cacodylate buffer (pH 7.2) and processed for TEM. The samples were examined on a FEI Tecnai 12 BT transmission electron microscope using 100 Kv accelerating voltage. Images were captured using a Gatan TEM CCD camera.

[16] = tested on: Hs578t cells; test: Survival in response to matrix (ECM) detachment; conditions: 24 hrs, ferrostatin-1 (2 μM), ZVAD-fmk (25 μM), deferoxamine
Experimental: as §3

[17] = tested on: MCF10A cells; test: Survival in response to matrix (ECM) detachment; conditions: 24 hrs, ferrostatin-1 (2 μM), ZVAD-fmk (25 μM), deferoxamine
Experimental: as §3

CCCCCC(O)/C=C/C=O (centres unmarked) [4HNE, 4-hydroxynonenal]
time after treatment at which the increase in HSF1 mRNA peaked [1]: 15 min | expression of HSF1 mRNA by qPCR [1]: significant increase | HSF1 protein expression and phosphorylation at S326 [1]: increased HSF1 protein expression levels as well as phosphorylation at S326 | PROM2 transcription ([2]; mechanism dependent upon HSF1, cell line not named at b183): stimulates PROM2 transcription | HSF1 expression and nuclear localization [3]: increased

Cc1ccc(-n2nc(C(C)(C)C)cc2NC(=O)Nc2ccc(OCCN3CCOCC3)c3ccccc23)cc1 [BIRB]
induction and phosphorylation of HSF1 following 4HNE or RSL3 treatment ([1]; 10 uM BIRB pretreatment): prevented the induction and phosphorylation of HSF1 | increase in HSF1 expression and nuclear localization, treatment prior to 4HNE or RSL3 ([1]; 10 uM BIRB pretreatment 15 minutes): significantly reduced the increase in expression and nuclear localization | 4HNE- or RSL3-driven increase in HSF1 expression on p38 inhibition ([1]; pre-treated with 10 uM BIRB, after 30 minutes of treatment): reduced the 4HNE- or RLS3-driven increase in HSF1 to basal levels

O=S(=O)(NC1CCCCC1)c1ccc2c(c1)C(=NO)c1cc(S(=O)(=O)NC3CCCCC3)ccc1-2 [FIN56]
cell death in response to compound with exogenous prominin2 expression [4]: sufficient to inhibit cell death | sensitivity to compound in prominin2 knock-down cells compared to control cells ([5]; Hs578t): significant increase in sensitivity | sensitivity to compound in prominin2 knock-down cells compared to control cells ([6]; MCF10A): significant increase in sensitivity

O=C(/C=C/c1ccc(/C=C/C(=O)Nc2ccc(C3=NCCN3)cc2)cc1)Nc1ccc(C2=NCCN2)cc1 [GW4869]
sensitivity of cells to RSL3 on inhibition of exosome release ([5]; Hs578t, RSL3 (5 μM) and GW4869 (20 μM), 24 hrs): increased the sensitivity | sensitivity of cells to RSL3 on inhibition of exosome release ([6]; MCF10A, RSL3 (5 μM) and GW4869 (20 μM), 24 hrs): increased the sensitivity

OO [H2O2]
prominin2 mRNA and protein expression [2]: did not increase prominin2 expression | prominin2 mRNA and protein expression [7]: did not increase prominin2 expression

Cl.N [NH4Cl]
effect on cell survival following GPX4 inhibition ([5]; Hs578t, 20 mM NH4Cl pre-treatment 60 min, then with RSL3 24 hrs (FIG. 10D)): had no effect on cell survival

COC(=O)c1ccc([C@@H]2c3[nH]c4ccccc4c3C[C@@H](C(=O)OC)N2C(=O)CCl)cc1 [RSL3]
TSG101-positive structures vs vehicle control-treated cells [8]: more TSG101-positive structures | free iron in response to RSL3 in control cells [9]: increase in iron | free iron concentration, RSL3-treated vs control cells ([10]; 5 μM RSL3, 2 hrs): no significant difference | concentration of free iron following RSL3 treatment when either prominin2 or both FTH1 and FTL were silenced ([10]; siRNA 48 hrs, RSL3 2 hrs): increase | free iron concentration, RSL3-treated vs control cells ([11]; 5 μM RSL3, 2 hrs): no significant difference | concentration of free iron following RSL3 treatment when either prominin2 or both FTH1 and FTL were silenced ([11]; siRNA 48 hrs, RSL3 2 hrs): increase | protein in the exosome preparation ([12]; 1 μM RSL3, 24 hours, exosomal protein in control cells not detected): significant amount of protein | iron in exosomes by ICP-MS ([12]; exosomes harvested from RSL3-treated cells): 3400 ng per exosome collection sample | time after treatment at which the increase in HSF1 mRNA peaked [1]: 15 min | expression of HSF1 mRNA by qPCR [1]: significant increase | HSF1 protein expression and phosphorylation at S326 [1]: increased HSF1 protein expression levels as well as phosphorylation at S326 | prominin2 mRNA and protein expression [2]: increased prominin2 mRNA and protein expression | expression of prominin1 (CD133) [13]: not altered significantly | prominin2 mRNA and protein expression [7]: increased prominin2 mRNA and protein expression | cell death in response to compound with exogenous prominin2 expression [4]: sufficient to inhibit cell death | RSL3 concentrations by which cells were killed ([4]; adherent MDA-MB-231, 24 hrs, FIG. 1F): ≥ 0.5 µM | sensitivity to compound in prominin2 knock-down cells compared to control cells ([5]; Hs578t): significant increase in sensitivity | RSL3 concentrations at which cells were resistant to RSL3-induced cell death ([5]; adherent Hs578t, 24 hrs, FIG. 1F): up to 2.5 | sensitivity to compound in prominin2 knock-down cells compared to control cells ([6]; MCF10A): significant increase in sensitivity | RSL3 concentrations at which cells were resistant to RSL3-induced cell death ([6]; adherent MCF10A, 24 hrs, FIG. 1F): up to 2.5 | induction of prominin2 [14]: did not induce prominin2 | TSG101-positive structures vs vehicle control-treated cells ([15]; RSL3 2 hrs): more TSG101-positive structures | MVBs per cell by TEM vs control cells ([15]; RSL3, effect not observed in prominin2-silenced cells): significantly more MVBs per cell | HSF1 expression and nuclear localization [3]: increased

COC(=O)C[C@H](NC(=O)[C@H](C)NC(=O)[C@@H](NC(=O)OCc1ccccc1)C(C)C)C(=O)CF [ZVAD-fmk] (Cbz-Val-Ala-Asp(OMe)-CH2F)
rescue of cell viability of ECM-detached prominin2-silenced cells by co-treatment [16]: not | rescue of cell viability of ECM-detached prominin2-silenced cells by co-treatment [17]: not

C#Cc1cccc(Nc2ncnc3cc(OCCOC)c(OCCOC)cc23)c1 [erlotinib]
sensitivity to RSL3 on co-treatment with other therapeutics ([6]; MCF10A, 100 nM Dasatinib or 25 uM Erlotinib with RSL3, 24 hours): did not significantly improve sensitivity

CCOC(=O)c1ccc(NC2CCCCC2)c(N)c1 [ferrostatin-1]
rescue of cell viability of ECM-detached prominin2-silenced cells by co-treatment [16]: rescued | rescue of cell viability of ECM-detached prominin2-silenced cells by co-treatment [17]: rescued | rescue of cell death triggered by GPX4 inhibition in FTH1 and FTL knock-down cells ([5]; Hs578t, RSL3 24 hrs, 100 uM deferoxamine): rescued | rescue of loss of cell viability in prominin2-depleted cells ([5]; Hs578t, RSL3 (5 μM) and ferrostatin-1 (2 μM), 24 hrs): completely rescued | rescue of cell death triggered by GPX4 inhibition in FTH1 and FTL knock-down cells ([6]; MCF10A, RSL3 24 hrs, 100 uM deferoxamine): rescued | rescue of loss of cell viability in prominin2-depleted cells ([6]; MCF10A, RSL3 (5 μM) and ferrostatin-1 (2 μM), 24 hrs): completely rescued | rescue of RSL3-induced cell death in cells with diminished TSG101 expression ([6]; MCF10A, TSG101 siRNA 48 hours, RSL3 and ferrostatin-1 24 hrs (FIG. 4C)): rescued
